{
  "source": "paper PMC9673926",
  "about": "“Nucleotide binding as an allosteric regulatory mechanism for Akkermansia muciniphila β-N-acetylhexosaminidase Am2136” (Gut Microbes, 2022)",
  "key": {"Am2136 P595A+H597A": {"target": "T1, Am2136 P595A+H597A (Akkermansia muciniphila, UniProt B2UPR7, H597A/P595A)", "T1 sequence (B2UPR7 20-756 P595A/H597A)": "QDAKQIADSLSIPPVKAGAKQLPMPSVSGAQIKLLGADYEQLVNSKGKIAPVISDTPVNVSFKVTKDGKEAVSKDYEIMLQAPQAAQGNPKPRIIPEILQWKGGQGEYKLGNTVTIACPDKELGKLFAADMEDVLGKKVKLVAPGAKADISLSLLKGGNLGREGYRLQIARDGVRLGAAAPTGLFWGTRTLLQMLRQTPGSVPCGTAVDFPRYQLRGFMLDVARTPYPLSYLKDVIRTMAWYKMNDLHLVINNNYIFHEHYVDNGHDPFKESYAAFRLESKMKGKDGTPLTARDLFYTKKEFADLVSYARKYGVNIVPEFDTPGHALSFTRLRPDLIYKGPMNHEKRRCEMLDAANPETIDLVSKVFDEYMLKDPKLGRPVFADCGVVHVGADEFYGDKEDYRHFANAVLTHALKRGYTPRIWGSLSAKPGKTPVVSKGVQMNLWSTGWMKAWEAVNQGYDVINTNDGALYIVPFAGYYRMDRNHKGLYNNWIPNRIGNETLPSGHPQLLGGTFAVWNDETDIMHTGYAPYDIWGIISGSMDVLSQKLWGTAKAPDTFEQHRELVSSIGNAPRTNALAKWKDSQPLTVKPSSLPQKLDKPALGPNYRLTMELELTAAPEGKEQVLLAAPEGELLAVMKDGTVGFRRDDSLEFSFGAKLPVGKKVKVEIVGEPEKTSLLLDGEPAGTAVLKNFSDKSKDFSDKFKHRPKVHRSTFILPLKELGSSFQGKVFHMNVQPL", "assay": "GDP regulated enzyme activity assay, mutant", "conditions": "1 mM GDP"}, "Am2136 Y327F+Y331F": {"target": "T2, Am2136 Y327F+Y331F (Akkermansia muciniphila, UniProt B2UPR7, Y327F/Y331F)", "T2 sequence (B2UPR7 20-756 Y327F/Y331F)": "T1 sequence (B2UPR7 20-756 P595A/H597A) with Y308F, Y312F, A576P, A578H", "assay": "GDP regulated enzyme activity assay, mutant", "conditions": "1 mM GDP, substrate pNP-β-GlcNAc"}, "Am2136 R256A": {"target": "T3, Am2136 R256A (Akkermansia muciniphila, UniProt B2UPR7, R256A)", "T3 sequence (B2UPR7 20-756 R256A)": "T1 sequence (B2UPR7 20-756 P595A/H597A) with R237A, A576P, A578H", "assay": "GDP regulated enzyme activity assay, mutant", "conditions": "1 mM GDP, substrate pNP-β-GlcNAc"}, "Am2136 WT": {"target": "T4, Am2136 WT (Akkermansia muciniphila, UniProt B2UPR7)", "T4 construct": "The coding region (residue Q20-L756) of Am2136 without signal peptide was based on UniProt; 6XHis (N); made in house; host or cells: E. coli BL21 (DE3)", "T4 sequence (B2UPR7 20-756)": "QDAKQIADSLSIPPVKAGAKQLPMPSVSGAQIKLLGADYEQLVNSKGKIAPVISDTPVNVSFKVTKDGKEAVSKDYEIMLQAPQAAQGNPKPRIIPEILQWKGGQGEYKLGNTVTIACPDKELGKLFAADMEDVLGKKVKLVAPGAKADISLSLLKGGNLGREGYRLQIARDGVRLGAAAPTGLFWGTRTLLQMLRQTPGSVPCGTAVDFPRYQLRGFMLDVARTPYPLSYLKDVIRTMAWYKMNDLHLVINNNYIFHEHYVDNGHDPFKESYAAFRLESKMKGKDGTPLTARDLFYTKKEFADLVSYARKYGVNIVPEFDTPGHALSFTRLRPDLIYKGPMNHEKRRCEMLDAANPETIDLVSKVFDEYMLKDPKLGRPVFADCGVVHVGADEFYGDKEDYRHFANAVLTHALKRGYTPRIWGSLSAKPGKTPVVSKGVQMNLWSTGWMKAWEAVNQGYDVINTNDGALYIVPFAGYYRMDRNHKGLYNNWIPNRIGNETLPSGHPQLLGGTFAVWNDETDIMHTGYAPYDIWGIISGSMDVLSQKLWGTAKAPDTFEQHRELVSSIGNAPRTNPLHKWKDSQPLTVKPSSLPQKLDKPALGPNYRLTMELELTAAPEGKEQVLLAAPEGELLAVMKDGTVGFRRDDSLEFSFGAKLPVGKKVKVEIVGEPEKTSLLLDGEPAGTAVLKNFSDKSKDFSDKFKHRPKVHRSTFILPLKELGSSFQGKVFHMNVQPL", "assay": "Enzyme activity assay (pNP-β-GlcNAc hydrolysis) regulated by nucleotides", "type": "biochemical"}},
  "note": "Numbering of substitutions follows the chain as printed.",
  "data": [
    {"compound": "Nc1nc2c(ncn2[C@@H]2O[C@H](COP(=O)(O)OP(=O)(O)O)[C@@H](O)[C@H]2O)c(=O)[nH]1", "note": "[GDP]", "values": [
      {"measurement": "Vmax", "setting": "Am2136 P595A+H597A; P595A+H597A, substrate pNP-β-GlcNAc", "value": "447 ± 4", "unit": "µmol/min"},
      {"measurement": "increase of kcat/Km with versus without GDP", "setting": "Am2136 P595A+H597A; P595A/H597A", "value": "roughly two-fold increase"},
      {"measurement": "Vmax", "setting": "Am2136 Y327F+Y331F", "value": "473 ± 6", "unit": "µmol/min"},
      {"measurement": "Vmax", "setting": "Am2136 R256A", "value": "465 ± 15", "unit": "µmol/min"},
      {"measurement": "maximal activation of Am2136", "setting": "Am2136 WT; 1 mM GDP", "value": "up to twofold"},
      {"measurement": "effect on Am2136 hydrolysis activity", "setting": "Am2136 WT; GDP 0–2.65 mM, substrate pNP-β-GlcNAc", "value": "concentration-dependent enhancement"},
      {"measurement": "Vmax", "setting": "Am2136 WT; WT, 1 mM nucleotide, substrate pNP-β-GlcNAc, 37°C", "value": "442 ± 7", "unit": "µmol/min"}
    ]}
  ]
}
